# Numbered stars: 1 amine (or outer) side, 2 acyl side, 3 side chain; on linkers, the order of the positions; unused ones are H or OH. Side chains are listed from the residue outwards. Peptide text beside a SMILES is read from it. * marks the point of attachment. C20 diacid = O=C(O)CCCCCCCCCCCCCCCCCCC(=O)*; γGlu = O=C(O)[C@H](CCC(=O)[*:2])N[*:1]
# Key:
# [1] = molecular target: T1, human amylin 3(a) receptor (human calcitonin receptor + RAMP-3), BHK570 cells (Homo sapiens, UniProt O60896+P30988); experiment: Assay (II)b functional CRE-luciferase assay without albumin, human amylin receptor; type: cell-based; conditions: Tested without HSA; read-out: hAmylin-R funct. EC50
# T1 construct: host or cells: BHK570
# Method in brief: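 Agonism measured as CRE-driven luciferase luminescence after 3 h sample exposure at 37 °C, without albumin (0.1% ovalbumin, Hepes pH 7.4 medium). Reporter cells: BHK570 carrying human calcitonin receptor, co-transfected with RAMP-3 to form the amylin 3(a) receptor.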
# [2] = molecular target: T1, human amylin 3(a) receptor (human calcitonin receptor + RAMP-3), BHK570 cells; experiment: Assay (II)a functional CRE-luciferase assay with albumin, human amylin receptor; type: cell-based; conditions: Tested with HSA; read-out: hAmylin-R funct. EC50
# Method in brief: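 BHK570 cells stably carry a CRE-luciferase reporter and the calcitonin receptor; co-transfected RAMP-3 gives the amylin 3(a) receptor line. Cells were treated for 3 h at 37 °C in DMEM with 10% FBS and 10 mM Hepes, pH 7.4. cAMP-driven luciferase was read by LucLite luminescence after 30 min at RT.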
# T1 sequence (O60896 24-148): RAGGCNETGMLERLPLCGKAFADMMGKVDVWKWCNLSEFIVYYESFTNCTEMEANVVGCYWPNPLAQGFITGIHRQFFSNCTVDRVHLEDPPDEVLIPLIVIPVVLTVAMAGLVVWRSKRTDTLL
# T1 sequence (P30988 25-474): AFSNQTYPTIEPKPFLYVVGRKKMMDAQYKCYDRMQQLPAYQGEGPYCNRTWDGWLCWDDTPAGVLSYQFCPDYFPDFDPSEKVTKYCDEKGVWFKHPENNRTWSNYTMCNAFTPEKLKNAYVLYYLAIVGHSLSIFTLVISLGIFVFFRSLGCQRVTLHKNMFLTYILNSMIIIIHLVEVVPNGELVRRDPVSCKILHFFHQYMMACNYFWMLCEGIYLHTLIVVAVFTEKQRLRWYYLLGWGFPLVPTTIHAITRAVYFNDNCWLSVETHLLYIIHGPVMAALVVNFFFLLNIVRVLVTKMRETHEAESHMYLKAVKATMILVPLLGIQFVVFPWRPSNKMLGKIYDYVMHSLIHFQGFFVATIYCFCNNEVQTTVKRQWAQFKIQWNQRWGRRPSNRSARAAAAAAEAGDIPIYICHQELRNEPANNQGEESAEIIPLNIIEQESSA
Structure (SMILES),EC50 [1],EC50 [2]
"CC(C)C[C@H](NC(=O)[C@H](C)NC(=O)[C@H](C)NC(=O)[C@@H](NC(=O)[C@H](CO)NC(=O)[C@H](CC(C)C)NC(=O)[C@H](CCC(=O)O)NC(=O)[C@H](CO)NC(=O)[C@H](C)NC(=O)[C@H](C)NC(=O)CC[C@H](NC(=O)CCCCCCCCCCCCCCCCCCC(=O)O)C(=O)O)[C@@H](C)O)C(=O)NCC(=O)N[C@@H](CCCNC(=N)N)C(=O)N[C@@H](CC(C)C)C(=O)N[C@@H](CO)C(=O)N[C@@H](C)C(=O)N[C@@H](CCC(=O)O)C(=O)N[C@@H](CC(C)C)C(=O)N[C@@H](Cc1c[nH]cn1)C(=O)N[C@@H](CCC(=O)O)C(=O)N[C@@H](CC(C)C)C(=O)N[C@@H](C)C(=O)N[C@H](C(=O)N[C@@H](Cc1ccc(O)cc1)C(=O)N1CCC[C@H]1C(=O)N[C@@H](CCCNC(=N)N)C(=O)N[C@H](C(=O)N[C@@H](CCC(=O)O)C(=O)N[C@H](C(=O)NCC(=O)N[C@@H](CO)C(=O)NCC(=O)N[C@@H](CO)C(=O)N1CCC[C@H]1C(N)=O)[C@@H](C)O)[C@@H](C)O)[C@@H](C)O [compound 57, [N-terminal(C20 diacid-gGlu), 1A, 23Y, 30S, 31G]mimylin] ({C20 diacid-γGlu}-AASELSTAALGRLSAELHELATYPRTETGSGSP-NH2)",20 pM,–
"CC(=O)N[C@@H](C)C(=O)N[C@@H](CO)C(=O)N[C@@H](CCCCNC(=O)CC[C@H](NC(=O)CCCCCCCCCCCCCCCCCCC(=O)O)C(=O)O)C(=O)N[C@@H](CC(C)C)C(=O)N[C@@H](CO)C(=O)N[C@H](C(=O)N[C@@H](C)C(=O)N[C@@H](C)C(=O)N[C@@H](CC(C)C)C(=O)NCC(=O)N[C@@H](CCCNC(=N)N)C(=O)N[C@@H](CC(C)C)C(=O)N[C@@H](CO)C(=O)N[C@@H](C)C(=O)N[C@@H](CCC(=O)O)C(=O)N[C@@H](CC(C)C)C(=O)N[C@@H](Cc1c[nH]cn1)C(=O)N[C@@H](CCC(=O)O)C(=O)N[C@@H](CC(C)C)C(=O)N[C@@H](C)C(=O)N[C@H](C(=O)N[C@@H](CC(C)C)C(=O)N1CCC[C@H]1C(=O)N[C@@H](CCCNC(=N)N)C(=O)N[C@H](C(=O)N[C@@H](CCC(=O)O)C(=O)N[C@H](C(=O)NCC(=O)N[C@@H](CO)C(=O)NCC(=O)N[C@@H](CO)C(=O)N1CCC[C@H]1C(N)=O)[C@@H](C)O)[C@@H](C)O)[C@@H](C)O)[C@@H](C)O [compound 68, [N-terminal(acetyl), des1, 4K(C20 diacid-gGlu), 30S, 31G]mimylin] (Ac-ASK([γGlu-C20 diacid])LSTAALGRLSAELHELATLPRTETGSGSP-NH2)",36 pM,72 pM
"CC(C)C[C@H](NC(=O)[C@H](CCCNC(=N)N)NC(=O)CNC(=O)[C@H](CC(C)C)NC(=O)[C@@H](NC(=O)[C@H](C)NC(=O)[C@@H](NC(=O)[C@H](CO)NC(=O)[C@H](CC(C)C)NC(=O)[C@H](CCC(=O)O)NC(=O)[C@H](CO)NC(=O)[C@H](C)NC(=O)CC[C@H](NC(=O)CCCCCCCCCCCCCCCCCCC(=O)O)C(=O)O)[C@@H](C)O)C(C)C)C(=O)N[C@@H](CO)C(=O)N[C@@H](CCC(N)=O)C(=O)N[C@@H](CCC(=O)O)C(=O)N[C@@H](CC(C)C)C(=O)N[C@@H](Cc1c[nH]cn1)C(=O)N[C@@H](CCC(=O)O)C(=O)N[C@@H](CC(C)C)C(=O)N[C@@H](CCC(N)=O)C(=O)N[C@H](C(=O)N[C@@H](Cc1ccc(O)cc1)C(=O)N1CCC[C@H]1C(=O)N[C@@H](CCCNC(=N)N)C(=O)N[C@H](C(=O)N[C@@H](CCC(=O)O)C(=O)N[C@H](C(=O)NCC(=O)N[C@@H](CO)C(=O)NCC(=O)N[C@H](C(=O)N[C@@H](Cc1ccc(O)cc1)C(N)=O)[C@@H](C)O)[C@@H](C)O)[C@@H](C)O)[C@@H](C)O [compound 114, [N-terminal(C20 diacid-gGlu), des1, 9V, 15Q, 21Q, 23Y, 30S, 31G, 32T, 33Y]mimylin]",–,142 pM

# Source: patent US9593149B2, “Amylin and calcitonin receptor agonist” (Novo Nordisk A/S, priority 2014, dated 2017)
